Here are results for 122 molecules from a melting point compilation (Tetko et al.).

SMILES strings stand for the structures.

As for `O=Cc1ccc(OCc2occc2C(=O)O)cc1`, the melting point (in general, the temperature, or range, at which the solid turns liquid) was in the range of 145 to 147 °C.

`O[C@@H]1CCCOc2ccccc21` had a melting point of 89 to 91 °C.

For the molecule `CCOC(=O)c1sc2cccc(F)c2c1CBr`, the melting point lay in the range of 133 to 135 °C.

On to `Cc1nc(C)c(CC(=O)O)c(=O)[nH]1`, for which the melting point fell in the range of 229 to 231 °C.

In the case of `O=c1oc2cc(O)ccc2c2c1CCC2`, the melting point fell in the range of 214 to 216 °C.

Consider `O=C(O)CSc1ccc2c(c1)CCC2`, for which the melting point was in the range of 64 to 66 °C.

Regarding `CC(=O)c1nnn(-c2ccccc2)c1C`, the melting point lay within 99 to 101 °C.

`NC(=S)c1ccc(NC(=O)c2ccco2)cc1`: the melting point is 258 to 260 °C.

Molecule `Cc1cc(C(=O)CCl)c(C)n1-c1cccc(C(F)(F)F)c1` yielded a melting point of 96 to 98 °C.

Take `CC(C)(C)OC(=O)N1C2CCC1CC(O)C2` (configuration not stated): the melting point was in the range of 140 to 142 °C.

Molecule `OCc1c(Cl)nc2sccn12` came in with a melting point of 174 to 176 °C.

On to `CC(C)C(O)c1nccn1C` (configuration not stated), for which the melting point was in the range of 80 to 82 °C.

In turn, `COc1cc2ncc(C(=O)O)c(O)c2cc1OC` gave a melting point of 293 to 295 °C.

`Oc1cccc2ccc(N3CCCCC3)nc12`: the melting point fell in the range of 69 to 71 °C.

Turning to `Nc1ccc(C(=O)N2CCCCC2)nc1`, the melting point was 170 to 172 °C.

`O=C(CCl)NOCc1ccccc1` came in with a melting point of 92 to 94 °C.

For `NCC(O)c1cc2ccccc2s1` (configuration not stated), the melting point is 128 to 130 °C.

For `CC1(C(=O)O)CCc2ccccc2C1` (configuration not stated), the melting point is 105 to 107 °C.

For `O=C(O)CCOc1cc(Cl)ccc1Cl`, the melting point was in the range of 145 to 147 °C.

Molecule `COc1cccc(C(=O)NN)c1OC` registered a melting point of 77 to 79 °C.

Turning to `Cc1ccc(C(=O)CCl)cc1`, the melting point fell in the range of 53 to 57 °C.

As to `O=C(O)c1ccccc1SCC(=O)N1CCc2ccccc21`, the melting point was 152 to 154 °C.

`CCOC(=O)c1nn(-c2ccccc2)cc1C=O` gave a melting point of 99 to 101 °C.

Molecule `COC(=O)C1CNNC(=O)C1` (configuration not stated) gave a melting point of 119 to 121 °C.

As to `COc1ccc(S(=O)(=O)Cl)c2ccccc12`, the melting point lay in the range of 95 to 97 °C.

Molecule `NC(=S)CCN1C(=O)c2ccccc2C1=O` showed a melting point of 186 to 188 °C.

Molecule `O=C1CNC(=O)N1CCCl` had a melting point of 114 to 116 °C.

In turn, `CNc1ccc([N+](=O)[O-])cc1C(=O)O` gave a melting point of 261 to 263 °C.

For the molecule `CC(C)n1nccc1C(=O)O`, the melting point lay in the range of 149 to 151 °C.

Regarding `O=C(O)COc1cc(C(F)(F)F)cc(C(F)(F)F)c1`, the melting point lay in the range of 102 to 104 °C.

With `CC1CCCCC1Nc1nnc(S)s1` (configuration not stated), the melting point was 133 to 135 °C.

Regarding `Cc1nn(-c2ccc(F)cc2F)c(C)c1CC(=O)O`, the melting point is 163 to 165 °C.

`NC(=S)NC1CCCCCC1` came in with a melting point of 89 to 91 °C.

`Nc1nc(Cl)c(Cl)c(N)c1Cl` yielded a melting point of 206 to 208 °C.

In turn, `O=C(O)CNC(=O)c1cccc([N+](=O)[O-])c1` registered a melting point of 90 to 92 °C.

`Cc1ccc(OCc2cccc(C(=O)O)c2)cn1` showed a melting point of 166 to 168 °C.

Take `Cc1noc(C)c1COc1ccc(C(=O)O)cc1`: the melting point lay in the range of 224 to 226 °C.

In turn, `O=C(O)c1ccccc1Cc1nc2ccccc2c(=O)[nH]1` came in with a melting point of 283 to 285 °C.

For the molecule `Nc1nnc(Cl)c2ccccc12`, the melting point is 159 to 161 °C.

`O=C(O)c1nn(-c2ccc(Cl)cc2)c2c1CCCCC2`: the melting point lay in the range of 212 to 214 °C.

Regarding `CCN(Cc1ccccc1)c1ccc(C(=O)O)cc1`, the melting point lay within 183 to 185 °C.

Consider `CN1N=C(C(=O)O)CCC1=O`, for which the melting point is 156 to 158 °C.

Consider `Nc1ccn(CCN2CCNC2=O)n1`, for which the melting point is 118 to 120 °C.

For `O=S(=O)(Cl)c1ccc2c(c1)Cc1ccccc1-2`, the melting point was in the range of 157 to 159 °C.

For the molecule `NC(=O)c1cccc(Oc2ccc(N)nc2)c1`, the melting point is 162 to 164 °C.

In the case of `Oc1cnnc(S)n1`, the melting point lay in the range of 244 to 246 °C.

The molecule `Cc1ccc(C(=O)O)cc1OCc1csc(Br)c1` displayed a melting point of 158 to 160 °C.

As for `CC(C)(C)OC(=O)NCc1cccc(O)c1`, the melting point fell in the range of 79 to 81 °C.

As to `ClCc1ccc(-c2ccccc2)cc1`, the melting point was in the range of 71 to 73 °C.

Molecule `Cn1nc(-c2ccccc2)nc1CC#N` gave a melting point of 116 to 118 °C.

`O=C(O)C1CCN(S(=O)(=O)c2cc([N+](=O)[O-])ccc2Cl)CC1` gave a melting point of 42 to 44 °C.

As for `CS(=O)(=O)Cc1ccc(S(=O)(=O)Cl)cc1`, the melting point fell in the range of 127 to 129 °C.

In the case of `NNC(=O)c1cc(-c2ccccc2)n[nH]1`, the melting point is 207 to 209 °C.

Turning to `Nc1ncc(Cc2cccc(F)c2)s1`, the melting point was 82 to 84 °C.

With `N#Cc1ccc(Nc2ccc(Cl)cc2)cc1`, the melting point was in the range of 139 to 141 °C.

`Cc1ccn2c(N)c(-c3cccs3)nc2c1` showed a melting point of 223 to 225 °C.

For the molecule `COC(=O)C(=O)CC(=O)c1ccc(F)cc1`, the melting point was 125 to 135 °C.

Molecule `COC(=O)c1ccc(Cl)c(S(=O)(=O)Cl)c1` showed a melting point of 103 to 105 °C.

With `COCCN1C(=O)c2ccc(C(=O)O)cc2S1(=O)=O`, the melting point was 151 to 153 °C.

As to `COCCNC(N)=S`, the melting point lay within 118 to 120 °C.

`Sc1nnc(C2COc3ccccc3O2)o1` (configuration not stated): the melting point lay in the range of 151 to 155 °C.

Regarding `CC(C)n1[nH]c(-c2ccc(F)cc2)cc1=O`, the melting point is 156 to 158 °C.

The molecule `OCc1noc(-c2ccccc2)n1` displayed a melting point of 80 to 82 °C.

For `Cn1cc(N2CCNCC2)cn1`, the melting point lay in the range of 68 to 70 °C.

Regarding `CCOC(=O)c1cnn2cc(Br)cnc12`, the melting point was in the range of 141 to 143 °C.

The molecule `O=C(O)COc1ccc(F)c(Cl)c1` showed a melting point of 106 to 108 °C.

In the case of `CCN1CCCC1CNS(=O)(=O)c1ccc(N)cc1` (configuration not stated), the melting point fell in the range of 101 to 103 °C.

`O=C(O)C=Cc1ccc(OC(F)(F)C(F)C(F)(F)F)cc1` (configuration not stated) yielded a melting point of 159 to 163 °C.

`O=C1CCCc2ccccc2N1`: the melting point was in the range of 129 to 131 °C.

Consider `CS(=O)(=O)c1ccc(F)c(NC(=O)CCl)c1`, for which the melting point lay in the range of 126 to 128 °C.

Molecule `S=C(c1cn(-c2ccccc2)nc1-c1ccccc1)N1CCCCC1` registered a melting point of 124 to 126 °C.

Take `O=Cc1cnc(N2CCCC2)nc1`: the melting point lay in the range of 118 to 120 °C.

In turn, `Cc1ccc(Cn2nc(C)c(CCC(=O)O)c2C)cc1` had a melting point of 134 to 136 °C.

On to `O=C(O)c1cccc(N2C(=O)C=CC2=O)c1`, for which the melting point lay in the range of 231 to 233 °C.

The molecule `CCOC(=O)C(=O)c1nccn1C` came in with a melting point of 52 to 54 °C.

In the case of `Cc1ncccc1C(=O)O`, the melting point lay in the range of 231 to 232 °C.

Turning to `NCc1cc(Br)c[nH]1`, the melting point fell in the range of 105 to 107 °C.

On to `COC(=O)c1ccc(Br)cc1F`, for which the melting point lay within 59 to 61 °C.

`N#Cc1ccc2nc(N)ncc2c1` registered a melting point of 344 to 346 °C.

Molecule `Nc1ccc(N2CCCC2=O)cc1` displayed a melting point of 125 to 127 °C.

The molecule `Cc1nnc(CO)o1` gave a melting point of 129 to 131 °C.

With `O=C(O)CNC(=O)c1ccccn1`, the melting point is 167 to 169 °C.

Molecule `CNC(=O)c1ccc(OC)c(N)c1` showed a melting point of 108 to 110 °C.

Take `O=C1CC2(CCCC2)C(=O)N1`: the melting point lay in the range of 105 to 107 °C.

As for `Cc1cc(C)c(C(=O)CCl)c(C)c1`, the melting point fell in the range of 68 to 70 °C.

`N#Cc1c(N2CCCC2)n[nH]c1N` registered a melting point of 208 to 210 °C.

As for `CSc1nn(C)c2nc[nH]c(=O)c12`, the melting point is 251 to 253 °C.

Molecule `O=C(O)c1cc(F)ccc1I` gave a melting point of 146 to 148 °C.

`N#Cc1cnc2c(F)ccc(F)c2c1Cl` returned a melting point of 172 to 174 °C.

With `NC1CCN(c2cccc(Cl)c2)C1=O` (configuration not stated), the melting point lay in the range of 99 to 101 °C.

`O=C1CC(C(=O)O)CC(=O)N1`: the melting point is 204 to 206 °C.

On to `CC(C)(C)NS(=O)(=O)c1cccc(N)c1`, for which the melting point was 137 to 139 °C.

Molecule `CC(C)c1nn(-c2ccccc2)cc1C=O` returned a melting point of 59 to 61 °C.

For `NNc1cn[nH]c(=O)c1Cl`, the melting point lay within 171 to 173 °C.

In turn, `O=C(O)c1nn(-c2ccc(F)cc2)c2c1CCCCC2` gave a melting point of 167 to 169 °C.

In the case of `Nc1ncc(Cl)cc1S(N)(=O)=O`, the melting point was in the range of 226 to 228 °C.

`COc1ccc(NCCC(=O)O)cc1` gave a melting point of 82 to 84 °C.

In turn, `CCOc1ccc(C(=O)N2CCCCC2)cc1N` came in with a melting point of 143 to 145 °C.

`Nc1ncc(Cc2ccccc2)s1` displayed a melting point of 106 to 108 °C.

On to `c1ccc(-c2noc(CSc3nnc(-c4ccncc4)o3)n2)cc1`, for which the melting point fell in the range of 134 to 136 °C.

Turning to `CC(C)Cc1ccc(C(=O)CBr)cc1`, the melting point was in the range of 37 to 39 °C.

Take `Nc1ccccc1NC(=O)c1cccs1`: the melting point was in the range of 110 to 112 °C.

`Cc1cc(C(=O)O)c(C)nn1` showed a melting point of 132 to 134 °C.

For the molecule `Cc1ccc(SCC(=O)Nc2ccccc2C)c(N)c1`, the melting point was in the range of 115 to 117 °C.

The molecule `Cc1ccc(NC(=O)OC(C)(C)C)s1` registered a melting point of 103 to 105 °C.

The molecule `COC(=O)N(C)c1ccccc1C(=O)O` returned a melting point of 138 to 140 °C.

In turn, `CC(C)Cc1nc(C(=O)O)cs1` gave a melting point of 104 to 106 °C.

For the molecule `CSc1cc(C)ccc1C(=O)O`, the melting point lay in the range of 176 to 178 °C.

`CS(=O)(=O)c1ccc(-c2nc(CCl)cs2)cc1` showed a melting point of 151 to 153 °C.

On to `N#Cc1nc(C2CC2)oc1N1CCNCC1`, for which the melting point was 99 to 101 °C.

For `O=C(O)CCN1C(=O)Cc2ccccc2C1=O`, the melting point was 148 to 150 °C.

As to `Cc1nn(-c2ccc(F)cc2)c(C)c1C=O`, the melting point was in the range of 128 to 130 °C.

In turn, `O=C(O)c1ccc([N+](=O)[O-])s1` had a melting point of 143 to 151 °C.

`COc1cc(C=O)c([N+](=O)[O-])cc1OCC(=O)O` yielded a melting point of 179 to 181 °C.

In turn, `COc1cccc(CNc2ccc(F)cc2)c1O` displayed a melting point of 76 to 78 °C.

With `CSc1ccncc1N`, the melting point fell in the range of 78 to 80 °C.

Take `CC(=O)Nc1ccc(S(=O)(=O)NC(C)C(=O)O)cc1` (configuration not stated): the melting point lay in the range of 178 to 180 °C.

For the molecule `O=C(O)c1cccc(NC(=O)c2ccc(Br)o2)c1`, the melting point was in the range of 229 to 231 °C.

For `Cc1cc(C)c2c(C)nn(-c3ccc(N)cc3)c2n1`, the melting point was in the range of 104 to 106 °C.

`COC(=O)c1cc(C(=O)O)n(-c2ccccc2)n1` yielded a melting point of 161 to 163 °C.

As for `Cc1cc(=O)[nH]n1C`, the melting point is 169 to 171 °C.

Regarding `Cc1ccc(S(=O)(=O)N2CCC(=O)CC2)cc1`, the melting point was in the range of 125 to 127 °C.
